Measured values from PMC5216056 (Nature Communications, 2017).

What was measured:
alpha 2A (h) = target: T1, alpha 2A (h) (Homo sapiens, UniProt P08913); test: CEREP panel; type: binding; conditions: 10 µM
T1 construct: CEREP
T1 sequence (P08913 1-465): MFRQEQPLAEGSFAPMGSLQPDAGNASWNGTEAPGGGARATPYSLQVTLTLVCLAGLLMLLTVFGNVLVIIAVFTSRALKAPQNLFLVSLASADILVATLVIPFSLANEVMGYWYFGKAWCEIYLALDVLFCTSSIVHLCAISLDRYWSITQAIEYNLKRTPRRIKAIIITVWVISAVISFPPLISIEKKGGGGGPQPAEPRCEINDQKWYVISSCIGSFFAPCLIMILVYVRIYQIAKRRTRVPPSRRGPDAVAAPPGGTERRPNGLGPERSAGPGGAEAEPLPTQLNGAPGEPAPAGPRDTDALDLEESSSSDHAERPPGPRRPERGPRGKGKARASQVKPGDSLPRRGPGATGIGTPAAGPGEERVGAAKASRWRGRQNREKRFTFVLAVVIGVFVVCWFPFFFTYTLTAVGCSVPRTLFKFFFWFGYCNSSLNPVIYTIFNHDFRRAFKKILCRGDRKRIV

[1] = 1 μM
FAAH = target: T2, FAAH (Homo sapiens, UniProt O00519); test: FAAH activity, U937 cell homogenate; type: biochemical; conditions: 5 µM, U937 cell homogenate
T2 construct: host or cells: U937
T2 sequence (O00519 1-579): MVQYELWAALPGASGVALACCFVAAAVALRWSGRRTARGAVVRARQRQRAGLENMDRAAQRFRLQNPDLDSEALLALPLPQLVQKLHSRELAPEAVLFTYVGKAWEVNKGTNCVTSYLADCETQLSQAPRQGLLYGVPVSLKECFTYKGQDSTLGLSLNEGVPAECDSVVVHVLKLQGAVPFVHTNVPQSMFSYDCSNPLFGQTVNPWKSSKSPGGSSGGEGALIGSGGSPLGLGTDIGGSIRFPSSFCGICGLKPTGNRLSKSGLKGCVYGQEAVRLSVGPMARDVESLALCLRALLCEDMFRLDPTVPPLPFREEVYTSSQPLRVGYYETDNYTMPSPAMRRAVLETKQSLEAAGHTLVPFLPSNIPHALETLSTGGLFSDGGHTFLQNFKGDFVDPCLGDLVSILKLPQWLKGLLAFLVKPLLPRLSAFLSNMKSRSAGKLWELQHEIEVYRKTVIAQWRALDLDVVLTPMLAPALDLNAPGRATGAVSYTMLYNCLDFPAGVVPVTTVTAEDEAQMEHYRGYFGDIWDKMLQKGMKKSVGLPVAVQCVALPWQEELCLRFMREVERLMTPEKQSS
Method: FAAH activity was assessed using U937 cell homogenate (source: U937 cells were purchased from ATCC, Manassas, VA, USA). Tested compounds (at the concentrations of 1 and 5 μM) or solvent (≤1% of the final volume) were pre-incubated at 37 °C for 30 min with 100 μg of cell homogenate diluted in assay buffer (10 mM Tris-HCl and 1 mM EDTA, pH 7.6 and 1% w/v fatty acid-free BSA). Successively, a mixture of 99.5 nM […] of AEA and 0.5 nM of [ethanolamine-1-3H]-AEA (40–60 Ci mmol^−1) was added to the homogenate (final concentration of 100 nM) and incubated for 10 min at 37 °C under shaking. After the incubation time, 2 volumes of an ice-cold methanol: chloroform mixture 1:1 (v/v) were added to each sample, vigorously vortexed and centrifuged at 10,000g for 10 min at 4 °C to separate aqueous and organic phases. The aqueous phases were collected and the radioactivity associated with the hydrolysis product [3H]-ethanolamine was measured after addition of 3 ml of scintillation cocktail using the Tri-Carb 2100 TR scintillation counter. Data were collected from three independent experiments performed in triplicate and results were expressed as FAAH activity, relative to that in vehicle-treated samples (=100%).

mCB2R = mCB2R (Mus musculus, UniProt P47936); test: biochemical; type: biochemical; parameters: from tissue; host or cells: spleen of male C57BL/6J mice
Sequence of mCB2R (P47936 whole entry): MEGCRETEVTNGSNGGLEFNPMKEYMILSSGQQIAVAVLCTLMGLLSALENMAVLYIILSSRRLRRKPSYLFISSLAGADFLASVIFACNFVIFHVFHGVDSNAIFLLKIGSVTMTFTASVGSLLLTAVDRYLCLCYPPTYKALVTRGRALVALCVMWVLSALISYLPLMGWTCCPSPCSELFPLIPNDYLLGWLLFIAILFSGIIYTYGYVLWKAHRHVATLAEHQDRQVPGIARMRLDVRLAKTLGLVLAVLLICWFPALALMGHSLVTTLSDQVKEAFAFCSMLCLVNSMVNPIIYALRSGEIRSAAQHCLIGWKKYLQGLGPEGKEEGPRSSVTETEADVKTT

PPARgamma (h) = target: T3, PPARgamma (h) (Homo sapiens, UniProt P37231); test: CEREP panel; type: binding; conditions: 10 µM
T3 construct: CEREP (contract assay)
T3 sequence (P37231 1-505): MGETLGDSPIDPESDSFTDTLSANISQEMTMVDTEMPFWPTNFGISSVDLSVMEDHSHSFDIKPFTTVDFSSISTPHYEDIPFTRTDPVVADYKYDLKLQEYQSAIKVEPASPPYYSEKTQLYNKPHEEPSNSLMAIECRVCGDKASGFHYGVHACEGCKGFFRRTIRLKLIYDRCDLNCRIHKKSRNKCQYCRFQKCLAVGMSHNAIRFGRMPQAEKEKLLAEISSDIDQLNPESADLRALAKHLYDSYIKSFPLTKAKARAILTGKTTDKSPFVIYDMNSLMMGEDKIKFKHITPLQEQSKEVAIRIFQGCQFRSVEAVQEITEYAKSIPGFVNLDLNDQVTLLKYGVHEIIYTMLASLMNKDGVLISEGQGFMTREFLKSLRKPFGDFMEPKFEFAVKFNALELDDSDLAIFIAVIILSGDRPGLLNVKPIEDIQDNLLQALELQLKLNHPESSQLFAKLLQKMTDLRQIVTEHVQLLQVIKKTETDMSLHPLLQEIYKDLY

mu (MOP) (h) = target: T4, mu (MOP) (h) (Homo sapiens, UniProt P35372); test: CEREP panel; type: binding; conditions: 10 µM
T4 construct: CEREP (contract assay)
T4 sequence (P35372 whole entry): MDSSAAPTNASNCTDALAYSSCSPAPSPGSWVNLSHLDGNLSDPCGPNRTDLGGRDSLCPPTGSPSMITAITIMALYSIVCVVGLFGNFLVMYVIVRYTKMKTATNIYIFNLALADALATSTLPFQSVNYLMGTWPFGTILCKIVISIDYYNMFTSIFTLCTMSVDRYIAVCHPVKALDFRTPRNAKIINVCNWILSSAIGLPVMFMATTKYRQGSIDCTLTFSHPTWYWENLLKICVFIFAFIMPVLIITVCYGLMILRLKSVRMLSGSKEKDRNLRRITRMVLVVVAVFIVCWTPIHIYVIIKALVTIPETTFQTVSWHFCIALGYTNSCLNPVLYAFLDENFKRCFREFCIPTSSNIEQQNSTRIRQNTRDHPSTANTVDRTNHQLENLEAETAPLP

[2] = test system: AEA reuptake in HaCaT cells; test: cells; type: cell-based, human
N muscle-type (h) = target: T5, N muscle-type (h) (Homo sapiens, UniProt P02708+P07510+P11230+Q07001); test: CEREP panel; type: binding; conditions: 10 µM
T5 construct: CEREP (contract assay)
T5 sequence (P02708 21-457): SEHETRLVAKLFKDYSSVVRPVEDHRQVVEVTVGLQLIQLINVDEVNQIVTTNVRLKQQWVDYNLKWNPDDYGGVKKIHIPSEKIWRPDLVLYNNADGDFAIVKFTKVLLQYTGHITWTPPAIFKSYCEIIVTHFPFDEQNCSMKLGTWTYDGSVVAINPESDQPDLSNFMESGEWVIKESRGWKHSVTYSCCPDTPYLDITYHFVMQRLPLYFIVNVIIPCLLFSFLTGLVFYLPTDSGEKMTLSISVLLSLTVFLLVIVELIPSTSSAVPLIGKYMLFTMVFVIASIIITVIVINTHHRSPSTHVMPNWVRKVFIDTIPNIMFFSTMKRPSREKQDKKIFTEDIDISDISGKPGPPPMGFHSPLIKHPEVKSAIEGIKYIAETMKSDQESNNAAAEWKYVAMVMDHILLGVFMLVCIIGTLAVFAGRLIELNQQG
T5 sequence (P11230 24-501): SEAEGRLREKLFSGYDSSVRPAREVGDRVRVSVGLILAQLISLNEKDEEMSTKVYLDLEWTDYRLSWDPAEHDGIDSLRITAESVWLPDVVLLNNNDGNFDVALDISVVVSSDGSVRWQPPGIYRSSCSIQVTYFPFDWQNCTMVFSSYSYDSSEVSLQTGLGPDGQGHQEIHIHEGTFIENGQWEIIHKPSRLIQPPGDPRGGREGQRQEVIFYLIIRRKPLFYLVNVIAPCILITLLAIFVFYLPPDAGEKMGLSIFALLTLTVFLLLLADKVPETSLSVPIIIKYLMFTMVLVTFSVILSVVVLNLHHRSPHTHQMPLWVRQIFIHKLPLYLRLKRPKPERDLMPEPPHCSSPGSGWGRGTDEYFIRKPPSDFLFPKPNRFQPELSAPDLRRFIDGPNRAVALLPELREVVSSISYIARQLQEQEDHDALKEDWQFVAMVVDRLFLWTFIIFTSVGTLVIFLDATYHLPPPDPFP
T5 sequence (Q07001 22-517): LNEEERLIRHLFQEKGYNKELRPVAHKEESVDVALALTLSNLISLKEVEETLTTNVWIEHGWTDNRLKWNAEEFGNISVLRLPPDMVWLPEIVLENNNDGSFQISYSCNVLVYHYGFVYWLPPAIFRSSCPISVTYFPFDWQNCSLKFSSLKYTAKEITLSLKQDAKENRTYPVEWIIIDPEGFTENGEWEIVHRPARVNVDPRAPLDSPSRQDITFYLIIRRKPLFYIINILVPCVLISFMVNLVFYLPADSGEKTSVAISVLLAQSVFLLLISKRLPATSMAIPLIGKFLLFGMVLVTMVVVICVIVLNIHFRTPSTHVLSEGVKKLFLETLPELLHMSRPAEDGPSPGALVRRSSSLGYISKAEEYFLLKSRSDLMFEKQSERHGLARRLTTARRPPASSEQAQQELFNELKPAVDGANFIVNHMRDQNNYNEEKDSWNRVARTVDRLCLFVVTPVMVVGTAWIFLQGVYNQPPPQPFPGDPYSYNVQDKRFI
T5 sequence (P07510 23-517): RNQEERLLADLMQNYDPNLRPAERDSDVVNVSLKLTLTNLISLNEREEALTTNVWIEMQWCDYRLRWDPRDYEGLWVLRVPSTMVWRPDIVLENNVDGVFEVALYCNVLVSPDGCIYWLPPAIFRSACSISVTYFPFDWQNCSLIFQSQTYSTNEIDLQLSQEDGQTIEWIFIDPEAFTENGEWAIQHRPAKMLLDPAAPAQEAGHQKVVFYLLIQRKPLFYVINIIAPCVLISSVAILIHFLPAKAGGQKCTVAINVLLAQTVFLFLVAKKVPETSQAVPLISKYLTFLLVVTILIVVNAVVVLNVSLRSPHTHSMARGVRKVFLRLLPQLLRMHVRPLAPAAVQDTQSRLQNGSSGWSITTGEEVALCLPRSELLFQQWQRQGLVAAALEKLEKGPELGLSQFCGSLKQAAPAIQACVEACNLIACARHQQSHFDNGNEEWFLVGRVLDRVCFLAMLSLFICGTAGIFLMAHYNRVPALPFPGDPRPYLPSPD

[3] = logD distribution coefficient; conditions: distribution coefficient

SMILES: Cc1c(C(=O)c2cccc3ccccc23)c2cccc3c2n1[C@H](CN1CCOCC1)CO3 [WIN55212-2]
- % inhibition alpha 2A (h) (alpha 2A (h)): 0%
- CL microsomes mouse [1]: 745 µL/min/mg protein
- FAAH % inhibition at 5 µM (FAAH): < 25%
- pEC50 ± SEM cAMP mCB2R (mCB2R; mouse spleen): 8.37 ± 0.23
- Emax cAMP mCB2R (mCB2R; normalized to 10 µM CP55940): 97%
- % inhibition PPARgamma (h) (PPARgamma (h)): 39%
- % inhibition mu (MOP) (h) (mu (MOP) (h)): 21%
- AEA reuptake % inhibition, effect at 10 µM, HaCaT cells ([2]; 10 µM (values marked *)): 24%
- IC50 ([2]; read-out: AEA reuptake IC50 (95% CI) HaCaT cells): > 5 µM
- % inhibition N muscle-type (h) (N muscle-type (h)): 7%
- logD [3]: 3.67±0.03
